The record followed here is PubChem BioAssay (NCI).

Molecules are shown by their SMILES.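 Test compounds were applied to cells in 96-well plates for 48 hours at 5 doses. GI50 = concentration required for 50% inhibition of growth. TGI denotes the concentration required for complete inhibition of growth.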

Some test systems named below: OVCAR-3 ovarian; OVCAR-4 ovarian; SNB-75 CNS; MOLT-4 leukemia; NCI-H522 lung; NCI/ADR-RES ovarian; SK-MEL-2 melanoma; HT29 colon; OVCAR-5 ovarian; SR leukemia.
What all share (assay): NCI-60 cell line screen, 48 h

As to `Cc1c(Sc2ccccc2)[n+](=O)c2cc(Cl)c(Cl)cc2n1[O-]`, the GI50 is 23.3 µM in the assay on OVCAR-3 ovarian; 85.3 µM in the assay with OVCAR-4 ovarian; above 100 µM with SNB-75 CNS; 15 µM in the assay with MOLT-4 leukemia; 23.6 µM with NCI-H522 lung; above 100 µM with NCI/ADR-RES ovarian. The GI50 in the assay with SK-MEL-2 melanoma was above 100 µM; in the assay on HT29 colon it was 79.9 µM; in the assay on OVCAR-5 ovarian, above 100 µM. The TGI in the assay on OVCAR-3 ovarian is 60.4 µM; in the assay with OVCAR-4 ovarian, above 100 µM; with SNB-75 CNS, above 100 µM; in the assay with MOLT-4 leukemia, 33.3 µM; in the assay on NCI-H522 lung it was 57.7 µM; in the assay on NCI/ADR-RES ovarian, above 100 µM. Moreover, the TGI in the assay on SK-MEL-2 melanoma, in the assay on HT29 colon and with OVCAR-5 ovarian was above 100 µM throughout.
Take `ClCc1ccc(Cn2cnc3c(Cl)nc(Cl)nc32)cc1`: the GI50 in the assay with OVCAR-3 ovarian is 1.99 µM; in the assay with OVCAR-4 ovarian, 4.91 µM; with SNB-75 CNS, 3.13 µM; in the assay with MOLT-4 leukemia, 10.4 µM; in the assay on NCI-H522 lung it was 22.4 µM; in the assay with NCI/ADR-RES ovarian, 16.5 µM. For the same compound, the GI50 with SK-MEL-2 melanoma is 19.8 µM; in the assay on HT29 colon, 2.9 µM; in the assay with OVCAR-5 ovarian, 18.2 µM. Further, the TGI in the assay on OVCAR-3 ovarian is 4.33 µM; with OVCAR-4 ovarian, 18.8 µM; in the assay on SNB-75 CNS, 9.32 µM; in the assay on MOLT-4 leukemia it was 27.4 µM; in the assay on NCI-H522 lung it was 46.8 µM; with NCI/ADR-RES ovarian, above 100 µM. For the same compound, the TGI was 43.5 µM with SK-MEL-2 melanoma, above 100 µM in the assay on HT29 colon and 34.5 µM in the assay with OVCAR-5 ovarian.
For `COc1cc2c3c(n(CCCN=[N+]=[N-])c(=O)c2cc1OC)-c1ccc(N(C)C)cc1C3=O`, the GI50 with OVCAR-3 ovarian was above 100 µM; in the assay with OVCAR-4 ovarian, above 100 µM; in the assay with SNB-75 CNS, 55.9 µM; in the assay with MOLT-4 leukemia it was above 100 µM; in the assay with NCI-H522 lung, above 100 µM; in the assay on NCI/ADR-RES ovarian, above 100 µM. Besides, the GI50 in the assay on SK-MEL-2 melanoma, with HT29 colon and with OVCAR-5 ovarian was above 100 µM in each case. Further, the TGI with OVCAR-3 ovarian, with OVCAR-4 ovarian, with SNB-75 CNS, in the assay on MOLT-4 leukemia, in the assay on NCI-H522 lung and in the assay on NCI/ADR-RES ovarian was above 100 µM each time. The TGI in the assay on SK-MEL-2 melanoma, with HT29 colon and in the assay with OVCAR-5 ovarian was above 100 µM throughout.
`O=C(Nc1ccc(Cl)c(Cl)c1)OCCN1c2ccccc2Sc2ccccc21`: the TGI in the assay on OVCAR-3 ovarian, with SR leukemia, in the assay on OVCAR-4 ovarian, in the assay on SNB-75 CNS, with MOLT-4 leukemia and in the assay on NCI-H522 lung was above 10 µM throughout. Further, the TGI in the assay on NCI/ADR-RES ovarian, with HT29 colon and with OVCAR-5 ovarian was above 10 µM throughout.
On to `COc1ccc(Nc2cc(C)nc(N3CCN(c4ccnc5cc(Cl)ccc45)CC3)n2)cc1`, for which the GI50 with OVCAR-3 ovarian was 2.31 µM; with SR leukemia it was 2.68 µM; in the assay with OVCAR-4 ovarian, 1.76 µM; in the assay on SNB-75 CNS, 2.47 µM; in the assay with MOLT-4 leukemia it was 2.9 µM; in the assay on NCI-H522 lung it was 2.02 µM. Besides, the GI50 in the assay on NCI/ADR-RES ovarian is 2.48 µM; with HT29 colon, 2.83 µM. In addition, the TGI in the assay on OVCAR-3 ovarian was 6.15 µM; with SR leukemia, above 100 µM; in the assay with OVCAR-4 ovarian, above 100 µM; in the assay with SNB-75 CNS, 13.4 µM; in the assay with MOLT-4 leukemia, 19.7 µM; with NCI-H522 lung, 5.27 µM. Also, the TGI with NCI/ADR-RES ovarian is 8.43 µM; in the assay with HT29 colon it was 8.11 µM.
`C=C1[C@@H]([C@@]2(C)C=CC(=O)C(C)(C)[C@@H]2CC(=O)OC)CC[C@@]2(C)C(c3ccoc3)OC(=O)[C@H]3O[C@]132` (some centres not stated): the TGI in the assay with OVCAR-3 ovarian, in the assay on OVCAR-4 ovarian, in the assay with SNB-75 CNS, in the assay with MOLT-4 leukemia, in the assay on NCI-H522 lung and in the assay with NCI/ADR-RES ovarian was above 100 µM in each case. In addition, the TGI in the assay on SK-MEL-2 melanoma, in the assay with HT29 colon and with OVCAR-5 ovarian was above 100 µM in each case.
Consider `COC(=O)C1=CC2OC1(C)CCC2=O` (configuration not stated), for which the TGI with OVCAR-3 ovarian, with SR leukemia, with OVCAR-4 ovarian, in the assay on SNB-75 CNS, with MOLT-4 leukemia and with NCI-H522 lung was above 100 µM throughout. The TGI in the assay with SK-MEL-2 melanoma, in the assay on HT29 colon and with OVCAR-5 ovarian was above 100 µM throughout.
Consider `COc1ccc(OC)c(Nc2nc(-c3c(C)nc4sccn34)cs2)c1`, for which the GI50 in the assay on OVCAR-3 ovarian is 92.7 µM; in the assay on OVCAR-4 ovarian, 14.2 µM; in the assay with SNB-75 CNS, 3.38 µM; in the assay on MOLT-4 leukemia it was above 100 µM; in the assay with NCI-H522 lung it was 52.6 µM; in the assay with NCI/ADR-RES ovarian, 15 µM. Moreover, the GI50 in the assay on SK-MEL-2 melanoma, in the assay on HT29 colon and with OVCAR-5 ovarian was above 100 µM in each case. For the same compound, the TGI with OVCAR-3 ovarian is above 100 µM; in the assay with OVCAR-4 ovarian it was above 100 µM; with SNB-75 CNS it was 33.7 µM; with MOLT-4 leukemia, above 100 µM; with NCI-H522 lung it was above 100 µM; in the assay with NCI/ADR-RES ovarian, above 100 µM. Moreover, the TGI with SK-MEL-2 melanoma, in the assay on HT29 colon and in the assay with OVCAR-5 ovarian was above 100 µM throughout.
For the compound `O=C(NS(=O)(=O)c1ccccc1)C(Cc1ccccc1)C(Cc1ccccc1)C(=O)NS(=O)(=O)c1ccccc1` (configuration not stated), the TGI in the assay with OVCAR-3 ovarian, in the assay on SR leukemia, in the assay on OVCAR-4 ovarian, in the assay on SNB-75 CNS, in the assay on MOLT-4 leukemia and in the assay on NCI-H522 lung was above 100 µM throughout. Moreover, the TGI with SK-MEL-2 melanoma, with HT29 colon and in the assay on OVCAR-5 ovarian was above 100 µM each time.
As to `COC1=C2CC(C)CC(OC)C(O)C(C)/C=C(\C)C(OC(N)=O)C(OC)/C=C\C=C(/C)C(=O)NC(=C(/C=N/N3CCCCC3)C1=O)C2=O` (configuration not stated), the TGI in the assay with OVCAR-3 ovarian is 4.62 µM; in the assay with SR leukemia, 7.48 µM; in the assay on OVCAR-4 ovarian, 19.3 µM; in the assay with SNB-75 CNS, 41 µM; in the assay with MOLT-4 leukemia it was 7.39 µM; with NCI-H522 lung, 7.87 µM. The TGI in the assay with SK-MEL-2 melanoma was determined as 32.5 µM; in the assay on HT29 colon, 26.6 µM; in the assay on OVCAR-5 ovarian it was 34.5 µM.
Turning to `C/C=C(\C)C(=O)N[C@H]1C(O)C[C@]2(C)C3CC[C@@]4(C)C(CC[C@@H]4C(C)N(C)C)C3CCC2C1O` (some centres not stated), the GI50 in the assay with OVCAR-3 ovarian is 4.68 µM; in the assay on OVCAR-4 ovarian it was 8.52 µM; with SNB-75 CNS, 10.7 µM; in the assay with MOLT-4 leukemia, 4.06 µM; with NCI-H522 lung, 11.2 µM; in the assay on NCI/ADR-RES ovarian, 18.4 µM. Besides, the GI50 in the assay on SK-MEL-2 melanoma is 24.1 µM; in the assay with HT29 colon, 1.4 µM; in the assay on OVCAR-5 ovarian, 16.7 µM. Also, the TGI in the assay with OVCAR-3 ovarian is 19.5 µM; with OVCAR-4 ovarian, above 100 µM; in the assay on SNB-75 CNS, 26.6 µM; with MOLT-4 leukemia, 17.2 µM; with NCI-H522 lung, above 43.7 µM; in the assay on NCI/ADR-RES ovarian, above 75.5 µM. For the same compound, the TGI is 49.1 µM with SK-MEL-2 melanoma, 5.18 µM in the assay on HT29 colon and above 47.9 µM with OVCAR-5 ovarian.
Regarding `C[C@H]1C(=O)CC[C@]2(C)CCC(C(C)(C)O)CC12O` (some centres not stated), the TGI with OVCAR-3 ovarian, in the assay with SR leukemia, with OVCAR-4 ovarian, in the assay on SNB-75 CNS, in the assay with MOLT-4 leukemia and with NCI-H522 lung was above 100 µM each time. For the same compound, the TGI in the assay on SK-MEL-2 melanoma, in the assay on HT29 colon and in the assay on OVCAR-5 ovarian was above 100 µM throughout.
On to `COc1ccc2c(c1OC)C(=O)c1cnccc1C2=O`, for which the TGI in the assay on OVCAR-3 ovarian, with SR leukemia, in the assay on OVCAR-4 ovarian, in the assay with SNB-75 CNS, with MOLT-4 leukemia and in the assay with NCI-H522 lung was above 100 µM in each case. In addition, the TGI with SK-MEL-2 melanoma, in the assay with HT29 colon and with OVCAR-5 ovarian was above 100 µM each time.
For the compound `CCC(Oc1ccc(OC)c2ccccc(=O)c12)C(=O)O` (configuration not stated), the TGI in the assay with OVCAR-3 ovarian, with SR leukemia, with OVCAR-4 ovarian, in the assay with SNB-75 CNS, with MOLT-4 leukemia and with NCI-H522 lung was above 100 µM each time. Moreover, the TGI in the assay with SK-MEL-2 melanoma, in the assay on HT29 colon and in the assay on OVCAR-5 ovarian was above 100 µM in each case.
With `C=CCCCc1ccc(C(O)CCCCCCCCCCCC)o1` (configuration not stated), the GI50 was 19 µM in the assay on OVCAR-3 ovarian; 15.5 µM with SNB-75 CNS; 19.6 µM in the assay with MOLT-4 leukemia; 15.3 µM in the assay with NCI-H522 lung; 17.4 µM in the assay on NCI/ADR-RES ovarian; 19.5 µM in the assay with SK-MEL-2 melanoma. Also, the GI50 with HT29 colon was 17.1 µM; in the assay with OVCAR-5 ovarian, 15.9 µM. Further, the TGI in the assay on OVCAR-3 ovarian was found to be 38.8 µM; in the assay with SNB-75 CNS it was 32 µM; in the assay on MOLT-4 leukemia it was 58.8 µM; in the assay on NCI-H522 lung, 29.7 µM; with NCI/ADR-RES ovarian, 34.2 µM; in the assay on SK-MEL-2 melanoma it was 42.9 µM. The TGI in the assay with HT29 colon was 35.4 µM; with OVCAR-5 ovarian, 30.4 µM.
`Cc1cccc(Nc2cnc(N)nc2N)c1`: the TGI in the assay on OVCAR-3 ovarian, in the assay with OVCAR-4 ovarian, with SNB-75 CNS, in the assay on MOLT-4 leukemia, with NCI-H522 lung and with NCI/ADR-RES ovarian was above 100 µM in each case. For the same compound, the TGI in the assay with SK-MEL-2 melanoma and with HT29 colon was above 100 µM throughout.
